Experiments:
Assay type in all cases: cell-based, human
CD8+ T cells [1] = details: control donors aged 21-42, wk 0 directly ex vivo, peptide pulsed T2 cells 1:1; positive if SFC greater than 5 per 100000 CD8+ T cells, p<0.05
CD8+ T cells [2] = details: for control donors in whom the epitope elicited a response: 12 control donors, aAPC assay, ICS; for geriatric donors with CD8+ T cells responding to the epitope: nine geriatric donors aged 65 and above, IFNγ ICS after 3 weeks of aAPC stimulation
CD8+ T cells [3] = test system: CD8+ T cells

Sequence | number of donors who responded by IFNγ ELISpot (CD8+ T cells [1]) | control donors in whom the epitope elicited a response (CD8+ T cells [2]) | geriatric donors with CD8+ T cells responding to the epitope (CD8+ T cells [2]) | CD8+ T cells specific by IFNγ expression (ICS) (CD8+ T cells [2]; Donor C1, after 3 weekly aAPC stimulations, restimulated with peptide pulsed T2 cells 1:1) [%] | CD8+ T cells specific for the epitope by A2-Ig dimer staining (CD8+ T cells [3]) [%]
CVNGSCFTV (listed as Influenza virus) [NA231-239, subdominant influenza peptide, pool 1] | no donor responded | – | – | – | –
IMDKNIILKA (listed as Influenza virus) [NS1123-132, subdominant influenza peptide, pool 2] | One | majority of the donors | Donors E2, E3, E4, and E8 responded | – | –
NMLSTVLGV (listed as Influenza virus) [PB1413-421, subdominant influenza peptide, pool 1] | Four out of the six | majority of the donors | none responded | 37 | 75
SLCPIRGWAI (listed as Influenza virus) [NA75-84, subdominant influenza peptide, pool 2] | 2 | – | – | – | –
SLENFRAYV (listed as Influenza virus) [PA225-233, subdominant influenza peptide, pool 1] | One | – | – | – | –
